Where two headings read alike, the source gives them in different places.

For data set [1] the following is noted: P-4135F, cited from earlier work.
The conditions of data set [2]: cited from earlier work.
The conditions of data set [3]: cited from earlier work. The source holds these as a separate data set.
For a further data set, the system named is HepG2 cells. In words: MTS cell viability assay with drug loaded beads. Format: cell-based, human. Conditions: Example 8, MTS, 72 hr exposure. As to the method:
An MTS assay was also conducted on the wells. At 72 hrs, the media from all wells was cautiously removed and each well washed three times with 200 μl sterile PBS. After adding 100 μl PRF media to each well, 20 μl of the prepared MTS solution (Promega) was also added. After a two hours incubation (37° C., 5% CO2) the plate was read at 490 nm using the plate reader and like the LDH assay, if the reading was too high the samples were diluted (75 μl PRF media: 75 μl samples).
Example 7 was repeated substantially as described, with an extended number of beads of one of the drugs. The results of the MTS assay, i.e. showing cell viability % (log scale) of HepG2 cells after 72 hr exposure, concluded as the mean of 6 samples, is shown in FIG. 19.
An MTS assay was used to assess the synergistic cytotoxic effects of dual loaded beads on HepG2 and PSN1 cells. The rapamycin loaded beads and the doxorubicin loaded beads were the same as those described in Example 7. The dual loaded doxorubicin and rapamycin loaded beads were loaded and analysed as described in Example 4 Method 2 using a 1 ml 60 mg/ml rapamycin solution and 1 ml 37.5 mg/ml doxorubicin solution.
The assay was prepared as described in Example 7 using HepG2 cells and additional plates of PSN1 cells for analysis.
An MTS assay (described in example 7) was conducted after 24, 48 and 72 hrs exposure. […]
Background: Tetrazolium dyes change colour on reduction, which living cells bring about.

The nature of data set [4]: Loading of doxorubicin and irinotecan into the same high AMPS beads (depletion, UV). Format: physicochemical. The settings on record: 1 ml high AMPS beads. As to the method: Five samples of 500-700 μm High AMPS beads of Example 1 were loaded with doxorubicin and irinotecan following different approaches:
Sample 1: 3.5 mL of irinotecan solution (Campto, Pfizer, 20 mg.mL^−1=70 mg) was loaded into 1 mL of beads for 48 h, to saturate all the sulfonate groups. Then, the depleted solution was removed and the loaded beads were washed with a known volume of deionised water to remove the non-bound drug. The amount of irinotecan loaded into the beads was calculated by depletion, as a difference between the initial and final amounts in the depleted solution and all washings measured by UV at a wavelength of 369 nm. One mL of doxorubicin (Dabur oncology-25 mg.ml^−1) was later added to the same beads and the loading profile determined. […] All solutions were measured by UV at a wavelength of 483 nm wavelength and the amount of drug loaded into the beads determined by depletion. After the beads were loaded and washed with deionised water, in a second step, 1.25 ml of irinotecan solution (20 mg.mL^−1=25 mg) was added to the same beads and the loading profile determined. […]
To determine the loading profiles of all samples, an aliquot of 50 μl was removed from each vial at time 5, 15, 30, 45 min after the addition of each drug, diluted as necessary and read by UV at 483 and 369 nm. […]

Data set [5] is described as follows: Elution of doxorubicin and irinotecan from the same beads into 200 ml PBS. The class given is physicochemical. Conditions: all samples. As to the method:
After being sized, all samples were eluted. Here, the remaining loading solutions were removed using a Pasteur pipette and the loaded beads were transferred to brown flasks containing 200 ml of PBS (Inverclyde Biologicals). At time 5, 15, 30, 45, 60, 90 min, 2 h, 4 h and 24 h, an aliquot of elution medium (4 ml) was removed and replaced with 4 mL of fresh PBS to maintain the volume. All samples were read by UV at 483 and 369 nm wavelengths, using the corresponding standard curves to calculate the amount eluted at each time point.
These two assumptions were made for all calculations. All samples were read at both 483 nm and 369 nm wavelengths. Using the absorbance and the standard curve of doxorubicin at 483 nm, the concentration of doxorubicin in each sample was calculated and using these concentrations and the standard curve of doxorubicin at 369 nm, the absorbance of doxorubicin at this wavelength was calculated.

Data set [6] in a line: Rapamycin and doxorubicin loading into high AMPS beads by two methods. Format: physicochemical. Conditions: Method 2. The protocol: Unloaded high AMPS bead slurry 1 ml was loaded with doxorubicin solution (5 ml of 10.07 mg/ml, target loading 50 mg/ml Bead) overnight. The doxorubicin-loaded beads were washed with 1 ml DMSO 5 times to remove extra water, and 1 ml 60 mg/mL rapamycin DMSO solution was mixed with the doxorubicin beads for about 30 min. Subsequently, following removal of extra rapamycin DMSO solution, the beads were washed with 5 ml saline until no white drug particles were observed.
1 ml Bead slurry was washed with 1 mL DMSO 5 times and mixed with 1 ml 60 mg/ml rapamycin DMSO solution for 30 min. The loaded beads were then washed with 5 ml saline until no further white drug particles were observed. […]
Doxorubicin loading test: The doxorubicin loading was measured by depletion method in either water or DMSO solution. The loading solution was taken and diluted 10 times and measured by UV at 483 nm to determine the concentration of doxorubicin residue in solution. […] The concentration of rapamycin was determined by UV at 279 nm. […]
Doxorubicin loss determination: The doxorubicin loss during DMSO washing of loaded beads before further loading of rapamycin (Method 2) was determined by measuring the accumulated DMSO washing solution in a volumetric flask at 483 nm. […]
Rapamycin and doxorubicin standard curve: The maximum absorbance of rapamycin is at wavelength 279 nm, which is overlapped with doxorubicin absorbance. […]

Data set [7] can be described thus: Loading of doxorubicin into ibuprofen-loaded low AMPS beads (depletion). The class given is physicochemical.
Method: Ibuprofen and doxorubicin solutions were loaded into low AMPS beads simultaneously. In order to achieve this, one sample of 1 ml of 500-700 μm beads was loaded with ibuprofen (according to examples in WO2004073688). The excess packaging solution was removed using a Pasteur pipette and 2 ml of doxorubicin solution (5 mg.ml^−1) were added. After 24 h, a 50 μl aliquot was removed from the depleted solution and measured by UV at 263 nm and 483 nm. The amount of doxorubicin loaded into beads was calculated by depletion, as a difference between the initial and final amounts in the depleted solution (calculations explained below).
These two assumptions were made for all calculations. All samples were read at both wavelengths (263 nm and 483 nm). Using the absorbance at 483 nm the concentration of doxorubicin in each sample was calculated, then using these concentrations and the standard curve of doxorubicin at 263 nm, the absorbance of doxorubicin at 263 nm was calculated. By subtracting this value from the total absorbance at 263 nm, the concentration of ibuprofen, was calculated using the ibuprofen standard curve.
Initially, lyophilised beads as described in WO2004073688 were loaded with ibuprofen/ethanol solution by solvent evaporation and then rehydrated with water and autoclaved for 15 min at 121° C. […]
Data set [8] in a line: Ibuprofen and irinotecan loading into high AMPS beads. Format: physicochemical. The protocol: Drug loading: The drug loading procedure is shown in FIG. 9, in which the unloaded high AMPS beads were washed with DMSO to remove the water trapped within the hydrogel. A mixture of ibuprofen solubilised in DMSO and castor oil as crystallisation inhibitor were subsequently mixed with the bead slurry, and kept for about 10 minutes. Following the removal of the loading solution, saline was used to wash the loaded beads until no drug particles nor large oil droplets were observed. The irinotecan loading was achieved by simply mixing the ibuprofen-loaded beads with irinotecan solution (10 mg/mL) by roller-mixing overnight. The final loaded beads were kept in the water solution as product.
1). Ibuprofen. The content of loaded ibuprofen was determined by an HPLC method. […] The collected DMSO solution was topped to the mark in a 10 ml volumetric flask, and the concentration of ibuprofen was measured by HPLC. […] The content of irinotecan in loaded beads was measured by depletion method. […] The loading solution was diluted with water and measured by UV at 369 nm. Compared to the standard curve, the concentration of irinotecan left in loading solution can be calculated.
To determinate the concentration of each component in a combined drug solution, the standard curves for absorption of predetermined concentrations of ibuprofen and irinotecan at 263, 272 and 369 nm in water were measured. […]

Data set [9] in a line: Elution of ibuprofen-irinotecan-loaded beads into PBS. The class given is physicochemical. Conditions: after 5 hours, irinotecan alone, combination comparable. As to the method:
The elution of ibuprofen-irinotecan-loaded beads was carried out by mixing 0.24 ml beads with 200 ml PBS (Inverclyde, Bellshill, UK) and roller-mixed on a roller mixer. At certain time point, the solution (5 ml) was taken out for concentration determination by UV and same volume of fresh PBS was added to keep a sink condition.

The conditions of data set [10]: cited from earlier work. The source holds these as a separate data set.

For `Nc1nc2c(c(=O)[nH]1)N(C=O)C(CNc1ccc(C(=O)N[C@@H](CCC(=O)O)C(=O)O)cc1)CN2` (some centres unmarked) [LV, leucovorin], in data set [1] (pH 6.8), the initial drug loss entry is recorded as “about 60%” and the “time to complete release” value is given as not above 2 h. Also, the encapsulation rate in data set [2] (Eudragit P-4135F) is recorded as 55.4±2.7%. In addition, the encapsulation rate in [2] (Eudragit RS100) is recorded as 81.4±8.6%.
Take `O=c1[nH]cc(F)c(=O)[nH]1` [Sample 5-FU, 5-fluorouracil]: the 5-FU release entry in data set [1] (pH 6.8, within 4 h) is “lower than 25%”. In addition, in data set [1] (pH 7.4), the “time of nearly immediate release” value is on record as not above 15 min. Further, the encapsulation efficiency in data set [3] (PLGA microparticles) is recorded as 19%; in data set [3] (encapsulated with Paclitaxel), 30%. Besides, the values for the encapsulation rate in data set [2] (Eudragit P-4135F) and in data set [2] (Eudragit RS100) were 48.3±2.0% and 60.3±9.7%, respectively.
Take `COc1cccc2c1C(=O)c1c(O)c3c(c(O)c1C2=O)C[C@@](O)(C(=O)CO)C[C@@H]3O[C@H]1C[C@H](N)[C@H](O)[C@H](C)O1` [doxorubicin]: the “cytotoxicity when eluted individually” value in the data set with HepG2 cells was “more cytotoxic to the cells than rapamycin”. For the same compound, the “maximum loading capacity of the beads” value in data set [4] is approximately 40 mg. The doxorubicin released in [5] (in 24 h) is listed as less than 25%. Further, in [6], the “doxorubicin loss during DMSO washing before rapamycin loading” value is on record as “about 6.71 mg/ml”. Besides, the “maximum amount of doxorubicin loaded into ibuprofen loaded beads” value in data set [7] (1 ml low AMPS beads, doxorubicin solution 5 mg/ml, 24 h) stood at 8.3 mg. Further, in data set [7] (loaded with this drug alone), the “maximum capacity of low AMPS beads for doxorubicin” value was approximately 14 mg/mL.
With `CCc1c2c(nc3ccc(OC(=O)N4CCC(N5CCCCC5)CC4)cc13)-c1cc3c(c(=O)n1C2)COC(=O)[C@]3(O)CC` [irinotecan], the “maximum irinotecan loading capacity for unloaded beads” value in data set [8] lay in the range of 50 to 60 mg/mL. The irinotecan loading efficiency entry in data set [8] (unloaded beads, below maximum loading capacity) is recorded as “above 98%”. The “maximum loading capacity of the beads” value in [4] worked out at 52 mg. Further, the irinotecan released in data set [5] (in <4 h) is given as more than 99 % mg. Moreover, the irinotecan eluted in [9] is approximately 100%.
As for heparin, the “initial burst release from the co-matrix” value in data set [10] (uncoated) was 32.7%; in data set [10] (with polyethylene glycol coatings, for 24 hr), 25.4%.
